Key:
[1] = Particle size (diameter) and polydispersity index of lipid nanoparticles; assay type: physicochemical; settings: nanoparticles comprising the lipid
Method: A Zetasizer Nano ZS (Malvern Instruments Ltd, Malvern, Worcestershire, UK) can be used to determine the particle size, the polydispersity index (PDI) and the zeta potential of the nanoparticle compositions in 1×PBS in determining particle size and 15 mM PBS in determining zeta potential.
Lipid nanoparticles (e.g., empty LNPs or loaded LNPs) may be characterized by a variety of methods. For example, microscopy (e.g., transmission electron microscopy or scanning electron microscopy) may be used to examine the morphology and size distribution of a nanoparticle composition. Dynamic light scattering or potentiometry (e.g., potentiometric titrations) may be used to measure zeta potentials. Dynamic light scattering may also be utilized to determine particle sizes. Instruments such as the Zetasizer Nano ZS (Malvern Instruments Ltd, Malvern, Worcestershire, UK) may also be used to measure multiple characteristics of a nanoparticle composition, such as particle size, polydispersity index, and zeta potential.
(§1) Lipid nanoparticles (e.g., empty LNPs or loaded LNPs) including DSPC as a phospholipid, cholesterol as a structural lipid, PL-II (e.g., PEG-1) as a PEG lipid, and a lipid according to Formula (I-1), (I), (I-A), (I-A1), (I-A2), (I-A3), or (I-A4) were prepared. In some embodiments, the lipid nanoparticles further included rhodamine-DOPE as a fluorescent lipid. Tables 2a, 2b, and 3 summarize the characteristics of the formulations.

[2] = Encapsulation efficiency (% EE) of lipid nanoparticles; assay type: physicochemical; settings: nanoparticles comprising the lipid
Method: For nanoparticle compositions including an RNA, a QUANT-IT™ RIBOGREEN® RNA assay (Invitrogen Corporation Carlsbad, CA) can be used to evaluate the encapsulation of an RNA by the nanoparticle composition. The samples are diluted to a concentration of approximately 5 μg/mL in a TE buffer solution (10 mM Tris-HCl, 1 mM EDTA, pH 7.5). 50 μL of the diluted samples are transferred to a polystyrene 96 well plate and either 50 μL of TE buffer or 50 μL of a 2% Triton X-100 solution is added to the wells. The plate is incubated at a temperature of 37° C. for 15 minutes. The RIBOGREEN® reagent is diluted 1:100 in TE buffer, and 100 μL of this solution is added to each well. The fluorescence intensity can be measured using a fluorescence plate reader (Wallac Victor 1420 Multilablel Counter; Perkin Elmer, Waltham, MA) at an excitation wavelength of, for example, about 480 nm and an emission wavelength of, for example, about 520 nm. The fluorescence values of the reagent blank are subtracted from that of each of the samples and the percentage of free RNA is determined by dividing the fluorescence intensity of the intact sample (without addition of Triton X-100) by the fluorescence value of the disrupted sample (caused by the addition of Triton X-100).
The efficiency of encapsulation of a therapeutic and/or prophylactic describes the amount of therapeutic and/or prophylactic that is encapsulated or otherwise associated with a lipid nanoparticle (e.g., an empty LNP or a loaded LNP) after preparation, relative to the initial amount provided. The encapsulation efficiency is desired to be high (e.g., close to 100%). The encapsulation efficiency may be measured, for example, by comparing the amount of therapeutic and/or prophylactic in a solution containing a loaded LNP before and after breaking up the loaded LNP with one or more organic solvents or detergents. Fluorescence may be used to measure the amount of free therapeutic and/or prophylactic (e.g., RNA) in a solution. For the loaded LNPs formulated with lipids of the disclosure, the encapsulation efficiency of a therapeutic and/or prophylactic is at least 50%, for example 50%, 55%, 60%, 65%, 70%, 75%, 80%, 85%, 90%, 91%, 92%, 93%, 94%, 95%, 96%, 97%, 98%, 99%, or 100%. In some embodiments, the encapsulation efficiency is at least 80%. In some embodiments, the encapsulation efficiency is at least 90%. In some embodiments, the encapsulation efficiency of the therapeutic and/or prophylactic agent is between 80% and 100%.
as §1

[3] = Lipid nanoparticle surface hydrophobicity by Generalized Polarization by Laurdan (N-GP); assay type: physicochemical; settings: for LNP surface hydrophobicity (N-GP*): Table 2b, nanoparticles comprising the lipid; for Lipid nanoparticle surface hydrophobicity (N-GP*): Table 2a, Laurdan, higher N-GP indicates a less polar surface
Source text: Surface hydrophobicity of nanoparticles of the disclosure can be measured by Generalized Polarization by Laurdan (GPL). In this method, Laurdan, a fluorescent aminonaphthalene ketone lipid, is post-inserted into the nanoparticle surface and the fluorescence spectrum of Laurdan is collected to determine the normalized Generalized Polarization (N-GP). In some embodiments, nanoparticles formulated with lipids of the disclosure have a surface hydrophobicity expressed as N-GP of between about 0.5 and about 1.5. For example, in some embodiments, nanoparticles formulated with lipids of the disclosure have a surface hydrophobicity expressed as N-GP of about 0.5, about 0.6, about 0.7, about 0.8, about 0.9, about 1.0, about 1.1, about 1.2, about 1.3, about 1.4, or about 1.5. In some embodiments, nanoparticles formulated with lipids of the disclosure have a surface hydrophobicity expressed as N-GP of about 1.0 or about 1.1.

[4] = Apparent pKa of lipid nanoparticles; assay type: physicochemical; settings: for Apparent pKa 95% CI: Table 2b, 95% confidence interval; for Apparent pKa: Table 2a, nanoparticles comprising the lipid
[5] = tested on: CD-1 mice; experiment: Expression of hEPO induced by LNPs (mRNA encoding hEPO) administered to mice; assay type: in vivo; settings: Table 4a, serum, 6 h after intravenous injection; for Avg. hEPO Concentration (mIU/mL)* ± Avg. SD: ELLA Simple Plex Assay
Method: In some embodiments, hEPO concentrations were determined using an […] (ELLA) Simple Plex Assay (ProteinSimple) with a Human Erythroprotein cartridge. Standards for this assay are calibrated according to the 2. IRP WHO preparation. Nanoparticle compositions including mRNA are useful in the evaluation of the efficacy and usefulness of various formulations for the delivery of therapeutic and/or prophylactics. Higher levels of protein expression induced by administration of a composition including an mRNA will be indicative of higher mRNA translation and/or nanoparticle composition mRNA delivery efficiencies. As the non-RNA components are not thought to affect translational machineries themselves, a higher level of protein expression is likely indicative of a higher efficiency of delivery of the therapeutic and/or prophylactic by a given nanoparticle composition relative to other nanoparticle compositions or the absence thereof.
To assess potency of expression of lipids of the disclosure, the protein expression (hEPO) following administration of a nanoparticle comprising a lipid of the disclosure (e.g., a loaded LNP) to mice was measured.
Lipid nanoparticles (LNPs) including DSPC as a phospholipid, cholesterol as a structural lipid, PL-II (e.g., PEG-1) as a PEG lipid, a lipid according to Formula (I-1), (I), (I-A), (I-A1), (I-A2), (I-A3), or (I-A4), and an mRNA encoding hEPO were intravenously administered to CD-1 mice. The concentration of hEPO in serum was tested at 6 h after injection.

[6] = Table 2a, DSPC, cholesterol, PEG lipid

Structure (SMILES)	Diameter (nm) ([1]; Table 2b)	PDI ([1]; Table 2b)	Diameter (nm) ([1]; Table 3)	PDI ([1]; Table 3)	% EE ([2]; Table 2b) [%]	% EE ([2]; Table 3) [%]	LNP surface hydrophobicity (N-GP*) [3]	Apparent pKa 95% CI [4]	Avg. hEPO Concentration (mIU/mL)* ± Avg. SD [5] [mIU/mL]	PDI ([1]; Table 2a)	Diameter (nm) [1, 6] [nm]	% EE ([2]; Table 2a) [%]	Lipid nanoparticle surface hydrophobicity (N-GP*) [3]	Apparent pKa [4]	Avg. hEPO Concentration (mIU/mL) ± Avg. SD [5] [mIU/mL]
CCCCCC(CCCCC)CCOC(=O)CCCCCCCN(CCCCCCCC(=O)OCCC(CCCC)CCCC)CCCNC(=O)C1(C)CC1 [Compound 11]	200.1	0.199	117	0.262	18.2	34.3	1.01	6.906 to 6.961	4.15E+06 ± 8.08E+04						
CCCCCC(CCCCC)CCOC(=O)CCCCCCCN(CCCCCCCC(=O)OCCC(CCCC)CCCC)CCCNS(=O)(=O)CC [Compound 12]			109.2	0.155		94.1				0.248	120.2	80.9	1.04	6.669	5.83E+06 ± 1.13E+05
CCCCCC(CCCCC)CCOC(=O)CCCCCCCN(CCCCCCCC(=O)OCCC(CCCC)CCCC)CCCNS(=O)(=O)Cc1ccon1 [Compound 13]	98.5	0.164	76.1	0.118	73.4	96.1	1.09	6.641 to 6.731		0.205	109.5	61.0	1.08	6.688	1.41E+07 ± 2.72E+05
CCCCCC(CCCCC)CCOC(=O)CCCCCCCN(CCCCCCCC(=O)OCCC(CCCC)CCCC)CCCNc1ncccc1N [Compound 14]	184.7	0.366	111.7	0.282	94.4	98.6	1.00	6.808 to 6.931	5.96E+05 ± 9.17E+03						
CCCCCCCC(CCCCCCC)OC(=O)CCCCCCCN(CCCCCCCC(=O)OCCC(CCCC)CCCC)CCCNc1n[s+]([O-])nc1NC (centres unmarked) [Compound 15]			74.2	0.212		97.2				0.128	76.4	96.6	0.94	6.761	3.74E+06 ± 1.61E+05

Source: US20240226026A1, “BRANCHED TAIL LIPID COMPOUNDS AND COMPOSITIONS FOR INTRACELLULAR DELIVERY OF THERAPEUTIC AGENTS” (ModernaTX, Inc., priority 2021, published 2024)
